The subject of one test is TAFII-17 gene. Kind of test: TAFII-17 gene expression (RT-PCR, band density vs β-actin) in bone marrow mononuclear cells from patients with Paget's disease of bone. Type of test: cell-based, human. The text has this:
(§1) Mononuclear cells were fractionated from bone marrow cells of healthy normal adults and patients with Paget's disease of bone according to a method of Kurihara et al. (Endocrinology, vol. 126, 2733–2741 (1990) and Journal of Clinical Investigation, vol. 105, 606–614 (2000)). Briefly, bone marrow cells were obtained from normal adults and patients with Paget's disease of bone, a mononuclear cell fraction was collected by Hypaque-Ficoll density gradient centrifugation, the cell fraction was washed with α-Minimal Essential Media (α-MEM, GIBCO BRL; Grand Island, N.Y.) 3 times, and the cells were dispersed in α-MEM containing 10% fetal bovine serum (GIBCO BRL; Grand Island, N.Y.). This mononuclear cell suspension was seeded on 100-mm tissue culture plates, the culture plates were kept for 90 minutes at 37° C. in a 5% CO2-air atmosphere, and the non-adherent cells were collected.
Mononuclear cells were prepared from bone marrow collected from patients with Paget's disease of bone according to a method described in Example 1. The collected mononuclear cells were dispersed in an α-MEM culture medium containing 20% horse serum in such a manner that the concentration became 3.3×10^5 cells/ml, seeded on 35-mm tissue culture plates at 3 ml/plate, and cultured for 12 hr at 37° C. in an incubator of 5% CO2-air in the presence of 10^−10 M 1α, 25-dihydroxyvitamin D3 and 10^−8 M Compound 11 (23S isomer) of the present invention singly, or in the presence of 10^−10 M 1α, 25-dihydroxyvitamin D3 and 10^−8 M Compound 11 (23S isomer) together. Subsequently, the cells were collected by centrifuge, RNA was extracted according to a routine procedure after the addition of 1 ml of an RNAzol B solution, and the resulting RNA was converted into cDNA by using a reverse transcriptase. The TAFII-17 gene was subjected to PCR reaction of 35 cycles each consisting of 1 min at 94° C., 1 min at 55° C. and 1 min at 72° C. using 5′-[…]-3′ (SEQ ID NO: 14) (sense) and 5′-[…]-3′(SEQ ID NO: 15) (antisense) as the primers. The PCR products were fractionated by electrophoresis using 2% agarose gel. As a house-keeping gene, β-actin was subjected to PCR reaction in the same manner, and the PCR products were fractionated by electrophoresis using 2% agarose gel. The densities of the bands of the TAFII-17 gene and the β-actin gene were determined by an image analyzer.

Test [1] relates to bone marrow cells from patients with Paget's disease of bone. As to the kind of experiment: Osteoclast formation in bone marrow cultures from patients with Paget's disease of bone (23C6-positive cells with three or more nuclei). The format is cell-based, human.
From the text: as §1
Mononuclear cells were fractionated from bone marrow cells of patients with Paget's disease of bone as described in Example 1. The collected mononuclear cells were dispersed in an α-MEM culture medium containing 20% horse serum in such a manner that the concentration became 10^6 cells/ml, and seeded on a 96-well multiplate at 100 μl/well. The suppression effect of Compound 11 (23S isomer) on osteoclast formation in the bone marrow cells of patients with Paget's disease of bone induced by 1α,25-dihydroxyvitamin D3 was evaluated as follows. Into each well, 1α,25-dihydroxyvitamin D3 of various concentrations, Compound 11 (23S isomer) of various concentrations, or a combination of 10^−10 M 1α,25-dihydroxyvitamin D3 and Compound 11 (23S isomer) of various concentrations was added. The culture medium was replaced two times a week, and culture was continued for 3 weeks at 37° C. in an incubator of 5% CO2-air. After the culture, the culture product was subjected to 23C6 antibody (antibody; gift from Dr. Michael A. Horton, Rayne Institute, Bone and Mineral Center, London, United Kingdom) alkaline phosphatase dyeing (VECTASTAIN-ABC-AP kit; Vector Laboratories, Burlingame, Calif.), and the nuclei were dyed with methyl green. Cells that were positive to 23C6 antibody and had three or more nuclei were determined as osteoclast, and the number of all osteoclasts in each well was counted.

Test [2] deals with human 25-hydroxyvitamin D3-24-hydroxylase gene promoter. Kind of test: 25-hydroxyvitamin D3-24-hydroxylase (24-OHase) luciferase reporter assay in NIH3T3 cells. The format is cell-based, mouse. The text has this:
The promoter region of the human 25-hydroxyvitamin D3-24-hydroxylase gene(−186/−5), which contains two vitamin D responsive elements (VDRE) was cloned into a luciferase reporter vector pGL3-Basic Vector (Promega; Madison, Wis.). This plasmid construct was cotransfected with a β-galactosidase expression plasmid into pcDNA3.1-Neo-hTAFII-17-CDS (Example 2) or its empty vector-transfected mouse fibroblastic cell line NIH3T3 cells by lipofection (LipofectAMINE; GIBCO BRL; Grand Island, N.Y.). Sixteen hours after the transfection, vehicle (0.1% ethanol) or 1α,25-(OH)2D3 (10^−10 to 10^−8 M) was added. Forty-eight hours later, the cells were harvested in the cell lysate solution provided with the luciferase assay kit (Promega; Madison, Wis.). The luciferase activities of the cell lysates were measured with the luciferase assay kit according to the manufacturer's instructions and was standardized with the β-galactosidase activities of the same cell lysates determined with a β-galactosidase enzyme assay system (Promega; Madison, Wis.).
In general terms: A reporter such as luciferase makes a cellular process visible.

[3] abbreviates: test substance alone at 10^−7 M, 3 weeks culture.
[4] abbreviates: test substance alone at 10^−8 M, 3 weeks culture.
Setting [5] is: test substance alone at 10^−9 M, 3 weeks culture.
The mark [6] stands for this setting: test substance alone at 10^−10 M, 3 weeks culture.
Setting [7] is: test substance alone at 10^−11 M, 3 weeks culture.

Compound `C=C1/C(=C\C=C2/CCC[C@]3(C)[C@@H]([C@H](C)CCCC(C)(C)O)CC[C@@H]23)C[C@@H](O)C[C@@H]1O` [1α,25-dihydroxyvitamin D3, reference compound] gave a TAFII-17/β-actin in the test on TAFII-17 gene (10^−10 M 1α,25-(OH)2D3 singly, 12 hr culture) of 100 arbitrary units. Further, the “concentration exhibiting almost the maximum activity on osteoclast formation” value in test [1] (1α,25-dihydroxyvitamin D3 alone) was ~10^−9 M. In test [1] (1α,25-dihydroxyvitamin D3 alone, range of 10^−11 M to 10^−7 M), the “osteoclast formation (in words)” value was “stimulated osteoclast formation concentration-dependently”. Further, the “osteoclast formation (average number of cells ± S.D.)” value in test [1] (setting [3]) amounted to 205 ± 6 cells; in test [1] (setting [4]) it was 206 ± 16 cells; in test [1] (setting [5]) it was 211 ± 25 cells; in test [1] (setting [6]) it was 180 ± 15 cells; in test [1] (setting [7]), 134 ± 14 cells. Besides, the “expression of 25-hydroxyvitamin D3-24-hydroxylase gene (reporter, in words)” value in test [2] (TAFII-17 gene-transfected NIH3T3 cells, 10^−8 M 1α,25-(OH)2D3, 48 h) was “extremely accelerated”; in test [2] (TAFII-17 gene-transfected NIH3T3 cells, 10^−9 M 1α,25-(OH)2D3, 48 h) it was “accelerated”; in test [2] (empty vector-transfected NIH3T3 cells, 10^−8 M 1α,25-(OH)2D3, 48 h), “detected”; in test [2] (empty vector-transfected NIH3T3 cells, 10^−9 M 1α,25-(OH)2D3, 48 h), “hardly detected”.
`C=C1C[C@H](C[C@H](C)[C@H]2CC[C@H]3/C(=C/C=C4/C[C@@H](O)C[C@H](O)C4=C)CCC[C@]23C)OC1=O` (single isomer, unassigned) [Compound 11 (23S isomer)]: the “expression of TAFII-17 gene (in words)” value with TAFII-17 gene (10^−8 M Compound 11 (23S isomer) added alone) is listed as “remarkably suppressed”. The TAFII-17/β-actin in the test on TAFII-17 gene (10^−8 M Compound 11 (23S isomer) singly, 12 hr culture) is reported as 6.82 arbitrary units; in the test with TAFII-17 gene (10^−8 M Compound 11 (23S isomer) together with 10^−10 M 1α,25-(OH)2D3, 12 hr culture), 46.89 arbitrary units. Moreover, the “expression of TAFII-17 gene accelerated by 10^−10 M 1α,25-(OH)2D3 (in words)” value in the test on TAFII-17 gene (addition of 10^−8 M Compound 11 (23S isomer)) was “strongly suppressed”. Also, the “osteoclast formation (average number of cells ± S.D.)” value in test [1] (10^−6 M compound 11 (23S isomer) + 10^−10 M 1α,25-dihydroxyvitamin D3, 3 weeks culture) is 1 ± 1 cells; in test [1] (10^−7 M compound 11 (23S isomer) + 10^−10 M 1α,25-dihydroxyvitamin D3, 3 weeks culture) it was 14 ± 1 cells; in test [1] (10^−8 M compound 11 (23S isomer) + 10^−10 M 1α,25-dihydroxyvitamin D3, 3 weeks culture), 63 ± 5 cells; in test [1] (10^−9 M compound 11 (23S isomer) + 10^−10 M 1α,25-dihydroxyvitamin D3, 3 weeks culture), 125 ± 5 cells; in test [1] (10^−10 M compound 11 (23S isomer) + 10^−10 M 1α,25-dihydroxyvitamin D3, 3 weeks culture) it was 155 ± 6 cells; in test [1] (10^−11 M compound 11 (23S isomer) + 10^−10 M 1α,25-dihydroxyvitamin D3, 3 weeks culture) it was 170 ± 13 cells. For the same compound, the “osteoclast formation (average number of cells ± S.D.)” value in test [1] (test substance alone at 10^−6 M, 3 weeks culture) is on record as 1 ± 1 cells; in test [1] (setting [3]) it was 8 ± 2 cells; in test [1] (setting [4]) it was 9 ± 3 cells; in test [1] (setting [5]) it was 16 ± 2 cells; in test [1] (setting [6]) it was 20 ± 4 cells; in test [1] (setting [7]), 29 ± 5 cells. Moreover, the “osteoclast formation induced by 10^−10 M 1α,25-dihydroxyvitamin D3 (in words)” value in test [1] (Compound 11 (23S isomer) added simultaneously, range of 10^−11 M to 10^−6 M) is “suppressed”. Further, the “osteoclast formation (in words)” value in test [1] (Compound 11 (23S isomer) alone at 10^−6 M) is reported as “did not caused any osteoclast formation”; in test [1] (Compound 11 (23S isomer) by itself), “rather inhibited the osteoclast formation”.
